According to PubChem BioAssay AID1845197 (Molecular Pharmacology Branch, DTP, NCI, 2023):

Test system: 349418-098-R tumor spheroid viability
Test: Anticancer human tumor 349418-098-R patient-derived lung adenocarcinoma cell line growth inhibition
Conditions: spheroids with HUVEC and MSC; for IC50: curve of first compound; for viability, T/C: stronger effect = lower value
Procedure, shortened: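 Complex spheroids of malignant cells with endothelial cells and mesenchymal stem cells; agents alone or combined, from near clinical Cmax (or 10 microM if unknown) down in half-log steps, 0.25% DMSO final.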
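Note: spheroids exposed to compound for 7 days before measurement.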
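Throughout, for viability, T/C: percent of vehicle control viability with 100% = DMSO-treated spheroids.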

In the case of COc1ccc([C@@H](O)c2cc(-c3ncnc4cc(N5CCOCC5)ccc34)c(F)cc2Cl)nn1 + COc1cc2c(cc1O)CCNC21CSC2c3c(OC(C)=O)c(C)c4c(c3C(COC1=O)N1C(O)C3Cc5cc(C)c(OC)c(O)c5C(C21)N3C)OCO4, the IC50 (second compound 30 pM) is reported as 5960 nM, the IC50 (second compound 94.9 pM) is reported as 3850 nM and the IC50 (second compound 0.0003 µM) is reported as 399 nM. The IC50 (second compound 0.000949 µM) was < 31.6 nM, the IC50 (second compound 0.003 µM) was < 31.6 nM and the viability, T/C (second compound 30 pM, first compound 0.0316 µM) was 97.2%. The viability, T/C (second compound 30 pM, first compound 0.1 µM) was 92.9%, the viability, T/C (second compound 30 pM, first compound 0.316 µM) was 102% and the viability, T/C (second compound 30 pM, first compound 1 µM) was 98.6%. For the same compound, the viability, T/C (second compound 30 pM, first compound 3.16 µM) was 83.3%, the viability, T/C (second compound 30 pM, first compound 10 µM) was 22.5% and the viability, T/C (second compound 94.9 pM, first compound 0.0316 µM) was 105%. The viability, T/C (second compound 94.9 pM, first compound 0.1 µM) was 101%, the viability, T/C (second compound 94.9 pM, first compound 0.316 µM) was 94.2% and the viability, T/C (second compound 94.9 pM, first compound 1 µM) was 94.3%. For the same compound, the viability, T/C (second compound 94.9 pM, first compound 3.16 µM) was 56.3%, the viability, T/C (second compound 94.9 pM, first compound 10 µM) was 18.3% and the viability, T/C (second compound 0.0003 µM, first compound 0.0316 µM) was 84.1%. For the same compound, the viability, T/C (second compound 0.0003 µM, first compound 0.1 µM) was 90.8%, the viability, T/C (second compound 0.0003 µM, first compound 0.316 µM) was 60% and the viability, T/C (second compound 0.0003 µM, first compound 1 µM) was 9.13%. It also gave a viability, T/C (second compound 0.0003 µM, first compound 3.16 µM) of 2.15%, a viability, T/C (second compound 0.0003 µM, first compound 10 µM) of 0.54% and a viability, T/C (second compound 0.000949 µM, first compound 0.0316 µM) of 0.44%. For the same compound, the viability, T/C (second compound 0.000949 µM, first compound 0.1 µM) was 0.79%, the viability, T/C (second compound 0.000949 µM, first compound 0.316 µM) was 0.24% and the viability, T/C (second compound 0.000949 µM, first compound 1 µM) was 0.35%. It also gave a viability, T/C (second compound 0.000949 µM, first compound 3.16 µM) of 1.2%, a viability, T/C (second compound 0.000949 µM, first compound 10 µM) of 2.19% and a viability, T/C (second compound 0.003 µM, first compound 0.0316 µM) of 1.61%. For the same compound, the viability, T/C (second compound 0.003 µM, first compound 0.1 µM) was 2.06%, the viability, T/C (second compound 0.003 µM, first compound 0.316 µM) was 2.65% and the viability, T/C (second compound 0.003 µM, first compound 1 µM) was 3.97%. It also gave a viability, T/C (second compound 0.003 µM, first compound 3.16 µM) of 4.18% and a viability, T/C (second compound 0.003 µM, first compound 10 µM) of 4.47%.
